According to US4376858A, “2-4-Diamino-5-methyl-6-[(3,4,5-trimethoxyanilino)methyl]quinazoline salts” (Warner Lambert Company, priority 1982, dated 1983):
Where a name gives a salt, the structure may show the parent alone.

How the values were obtained:
[1] = Solubility of prepared 2,4-diamino-5-methyl-6-[(3,4,5-trimethoxyanilino)methyl]quinazoline salts in water; format: physicochemical; conditions: Table II, Method B: saturated 5.0 ml H2O overnight, filtrate diluted with 0.01 N HCl, 1440 min
[2] = as above; format: physicochemical; conditions: for Solubility in water: Table II, Method A: saturated 2.0 ml H2O overnight, filtrate diluted with methanol, 1440 min; for Filtrate pH / Solubility: Table III, Prepared Salt; for water solubility (in words): qualitative conclusion from Tables I and II
Method: Method A: Saturated 2.0 ml H2 O overnight, 0.5 ml of filtrate diluted to 10.0 ml with methanol, added 1 drop of 6 N KOH to UV cell.

[3] = Solubility of the base 2,4-diamino-5-methyl-6-[(3,4,5-trimethoxyanilino)methyl]quinazoline in aqueous acids (shake-out); format: physicochemical; conditions: for Base Solubility in acid soln.: Table I; for Solubility / Filtrate pH: Table III
[4] = system: neoplasms; conditions: Biochemical Pharmacology 28, 1983-1987; Cancer Research 39, 293-304; cited from earlier work
[5] = system: bacteria; conditions: reported in Great Britain Patent Specification No. 1,345,502; cited from earlier work
[6] = system: malaria; conditions: reported in Great Britain Patent Specification No. 1,345,502; cited from earlier work
[7] = Stability and solid form of the salts; format: physicochemical; conditions: qualitative
[8] = acid conc. .1 M, acid/base 2/1, * not saturated (isethionic, ethoxyacetic)
[9] = 0.1 M acid per method (head: 1 M soln.), 0.05 M base, shaken 4-12 hours, UV 321 nm
[10] = lines marked *: .05 M acid, 1/1 acid/base
[11] = listed as 2,4-diamino-5-methyl-6-[(3,4,5-trimethoxyanilino)methyl]quinazoline glucuronate
[12] = acid conc. .06 M, acid/base 1/1

Question: With `COc1cc(NCc2ccc3nc(N)nc(N)c3c2C)cc(OC)c1OC` [3-Hydroxypropyl sulfonate] as the compound, how does the Solubility in water [1] read?
Answer: 4.73 mg base/ml

Question: Which Solubility in water [2] does the source give for `COc1cc(NCc2ccc3nc(N)nc(N)c3c2C)cc(OC)c1OC` [Acetate] here?
Answer: 1.72 mg base/ml

Question: Which results are given for `COc1cc(NCc2ccc3nc(N)nc(N)c3c2C)cc(OC)c1OC` [Benzene sulfonate]?
Answer: Base Solubility in acid soln. ([3]; lines marked *: .05 M acid, 1/1 acid/base, listed as Benzene sulfonic): 1.89 mg base/ml; Base Solubility in acid soln. ([3]; 0.1 M acid per method (head: 1 M soln.), 0.05 M base, shaken 4-12 hours, UV 321 nm, listed as Benzene sulfonic): 7.17 mg base/ml; Solubility ([3]; acid conc. .05 M, acid/base 1/1, * not saturated (isethionic), listed as Benzene sulfonic): 1.89 mg base/ml; Filtrate pH ([3]; acid conc. .05 M, acid/base 1/1, listed as Benzene sulfonic): 2.95; Solubility ([3]; acid conc. .1 M, acid/base 2/1, * not saturated (isethionic, ethoxyacetic), listed as Benzene sulfonic): 7.17 mg base/ml; Filtrate pH ([3]; acid conc. .1 M, acid/base 2/1, listed as Benzene sulfonic): 2.95; Filtrate pH ([2]; listed as Benzene sulfonic): 4.45; Solubility ([2]; listed as Benzene sulfonic): 1.24 mg base/ml; Solubility in water [1]: 1.24 mg base/ml

Question: With `COc1cc(NCc2ccc3nc(N)nc(N)c3c2C)cc(OC)c1OC` [Ethane sulfonate] as the compound, how does the Solubility in water [1] read?
Answer: 2.64 mg base/ml

Question: With `COc1cc(NCc2ccc3nc(N)nc(N)c3c2C)cc(OC)c1OC` [Ethoxyacetate] as the compound, how does the “Base Solubility in acid soln.” value ([3]; lines marked *: .05 M acid, 1/1 acid/base, listed as Ethoxyacetic) read?
Answer: 19.7 mg base/ml

Question: What about the “Base Solubility in acid soln.” value ([3]; 0.1 M acid per method (head: 1 M soln.), 0.05 M base, shaken 4-12 hours, UV 321 nm, listed as Ethoxyacetic) of the same compound?
Answer: 19.5 mg base/ml

Question: What about the Solubility ([3]; acid conc. .065 M, acid/base 1/1, * not saturated) of the same compound?
Answer: 19.7 mg base/ml

Question: What about the Solubility [3, 8] of the same compound?
Answer: 19.5 mg base/ml

Question: And the Solubility ([2]; listed as Ethoxyacetic)?
Answer: 6.3 mg base/ml

Question: What about the Solubility in water [1] of the same compound?
Answer: 6.3 mg base/ml

Question: With `COc1cc(NCc2ccc3nc(N)nc(N)c3c2C)cc(OC)c1OC` [Free base, 2,4-diamino-5-methyl-6-[(3,4,5-trimethoxyanilino)methyl]quinazoline] as the compound, how does the antineoplastic activity [4] read?
Answer: exhibit antineoplastic activity

Question: What about the antibacterial activity [5] of the same compound?
Answer: exhibiting antimalarial and antibacterial activity

Question: And the Solubility in water [2]?
Answer: 0.2 mg base/ml

Question: What about the Solubility in water [1] of the same compound?
Answer: 0.1 mg base/ml

Question: What about the antimalarial activity [6] of the same compound?
Answer: exhibiting antimalarial and antibacterial activity

Question: Which results are given for `COc1cc(NCc2ccc3nc(N)nc(N)c3c2C)cc(OC)c1OC` [Galacturonic]?
Answer: Base Solubility in acid soln. [3, 9]: 25.1 mg base/ml; solid form (in words) ([7]; listed as galacturonate): undesirable amorphous form

Question: For `COc1cc(NCc2ccc3nc(N)nc(N)c3c2C)cc(OC)c1OC` [Gentisate], which Solubility in water [2] is on record?
Answer: 1.4-7.06 mg base/ml

Question: And the Solubility in water [1]?
Answer: 0.28 mg base/ml

Question: Which Solubility in water [1] does the source give for `COc1cc(NCc2ccc3nc(N)nc(N)c3c2C)cc(OC)c1OC` [Gluconatete] here?
Answer: 2.55 mg base/ml

Question: Which “Base Solubility in acid soln.” value [3, 10] does the source give for `COc1cc(NCc2ccc3nc(N)nc(N)c3c2C)cc(OC)c1OC` [Gluconic] here?
Answer: 19.8 mg base/ml

Question: What about the “solid form (in words)” value ([7]; listed as gluconate) of the same compound?
Answer: undesirable amorphous form

Question: Which “Base Solubility in acid soln.” value ([3]; 0.1 M acid per method (head: 1 M soln.), 0.05 M base, shaken 4-12 hours, UV 321 nm, listed as Glucuronic) does the source give for `COc1cc(NCc2ccc3nc(N)nc(N)c3c2C)cc(OC)c1OC` [Glucuronate, 2,4-Diamino-5-methyl-6-[(3,4,5-trimethoxyanilino)methyl]quinazoline D-glucuronate] here?
Answer: 34.35 mg base/ml

Question: What about the “solid form (in words)” value [7, 11] of the same compound?
Answer: powdery rather than crystalline

Question: What about the “water solubility (in words)” value [2, 11] of the same compound?
Answer: higher degree of solubility

Question: What about the Solubility in water [1] of the same compound?
Answer: 109.4 mg base/ml

Question: With `COc1cc(NCc2ccc3nc(N)nc(N)c3c2C)cc(OC)c1OC` [Glycolic] as the compound, how does the “Base Solubility in acid soln.” value [3, 10] read?
Answer: 4.73 mg base/ml

Question: And the “Base Solubility in acid soln.” value [3, 9]?
Answer: 4.13 mg base/ml

Question: What about the “Filtrate pH” value ([3]; acid conc. .1 M, acid/base 1/1) of the same compound?
Answer: 3.28

Question: And the Solubility ([3]; acid conc. .1 M, acid/base 1/1)?
Answer: 4.73 mg base/ml

Question: What about the “Filtrate pH” value ([3]; acid conc. .1 M, acid/base 2/1) of the same compound?
Answer: 3.00

Question: And the Solubility [3, 8]?
Answer: 4.13 mg base/ml

Question: What about the “Filtrate pH” value [2] of the same compound?
Answer: 5.30

Question: What about the Solubility [2] of the same compound?
Answer: 2.55 mg base/ml

Question: With `COc1cc(NCc2ccc3nc(N)nc(N)c3c2C)cc(OC)c1OC` [Hydrochloride] as the compound, how does the Solubility in water [2] read?
Answer: 3.22 mg base/ml

Question: What does the source list for `COc1cc(NCc2ccc3nc(N)nc(N)c3c2C)cc(OC)c1OC` [Isethionate, 2,4-Diamino-5-methyl-6-[(3,4,5-trimethoxyanilino)methyl]quinazoline monoisethionate]?
Answer: Base Solubility in acid soln. ([3]; lines marked *: .05 M acid, 1/1 acid/base, listed as Isethionic): 17.3 mg base/ml; Base Solubility in acid soln. ([3]; 0.1 M acid per method (head: 1 M soln.), 0.05 M base, shaken 4-12 hours, UV 321 nm, listed as Isethionic): 16.3 mg base/ml; Solubility ([3]; acid conc. .05 M, acid/base 1/1, * not saturated (isethionic)): 17.34 mg base/ml; Filtrate pH ([3]; acid conc. .05 M, acid/base 1/1, listed as Isethionic): 3.70; Solubility [3, 8]: 16.33 mg base/ml; Filtrate pH ([3]; acid conc. .1 M, acid/base 2/1, listed as Isethionic): 1.83; solid form (in words) [7]: crystalline; stability (in words) [7]: stable; Solubility in water [2]: 23.93 mg base/ml; Filtrate pH ([2]; listed as Isethionic): 5.30; Solubility ([2]; listed as Isethionic): 24.8 mg base/ml; water solubility (in words) [2]: highly water soluble; Solubility in water [1]: 24.78 mg base/ml

Question: For `COc1cc(NCc2ccc3nc(N)nc(N)c3c2C)cc(OC)c1OC` [Lactate], which Solubility in water [2] is on record?
Answer: 4.34 mg base/ml

Question: Which results are given for `COc1cc(NCc2ccc3nc(N)nc(N)c3c2C)cc(OC)c1OC` [Methane sulfonic]?
Answer: Base Solubility in acid soln. [3, 10]: 6.49 mg base/ml; Base Solubility in acid soln. [3, 9]: 9.83 mg base/ml; Filtrate pH [3, 12]: 3.00; Solubility [3, 12]: 6.5 mg base/ml; Solubility ([3]; acid conc. .1 M, acid/base 1/.9): 8.74 mg base/ml; Filtrate pH [2]: 5.32; Solubility [2]: 4.9 mg base/ml

Question: With `COc1cc(NCc2ccc3nc(N)nc(N)c3c2C)cc(OC)c1OC` [N--(Morpholine)ethane-2-sulfonic] as the compound, how does the “Base Solubility in acid soln.” value [3, 9] read?
Answer: 11.2 mg base/ml

Question: For `COc1cc(NCc2ccc3nc(N)nc(N)c3c2C)cc(OC)c1OC` [d-Tartaric], which “Base Solubility in acid soln.” value [3, 9] is on record?
Answer: 1.57 mg base/ml

Question: Which “Base Solubility in acid soln.” value [3, 9] does the source give for `COc1cc(NCc2ccc3nc(N)nc(N)c3c2C)cc(OC)c1OC` [p-Toluene sulfonic] here?
Answer: 2.74 mg base/ml
